Reference: ChEMBL document CHEMBL1144946, “4-Amino-2-(aryl)-butylbenzamides and Their conformationally constrained analogues. Potent antagonists of the human neurokinin-2 (NK(2)) receptor” (Bioorg Med Chem Lett, 2003)

Key:
Substance-K receptor [1] = biological target: T1, Substance-K receptor (Homo sapiens, UniProt P21452); assay: Binding affinity for human tachykinin receptor 2 expressed in CHO cells using [125I]- NKA radioligand; assay type: cell-based
T1 sequence (P21452 whole entry): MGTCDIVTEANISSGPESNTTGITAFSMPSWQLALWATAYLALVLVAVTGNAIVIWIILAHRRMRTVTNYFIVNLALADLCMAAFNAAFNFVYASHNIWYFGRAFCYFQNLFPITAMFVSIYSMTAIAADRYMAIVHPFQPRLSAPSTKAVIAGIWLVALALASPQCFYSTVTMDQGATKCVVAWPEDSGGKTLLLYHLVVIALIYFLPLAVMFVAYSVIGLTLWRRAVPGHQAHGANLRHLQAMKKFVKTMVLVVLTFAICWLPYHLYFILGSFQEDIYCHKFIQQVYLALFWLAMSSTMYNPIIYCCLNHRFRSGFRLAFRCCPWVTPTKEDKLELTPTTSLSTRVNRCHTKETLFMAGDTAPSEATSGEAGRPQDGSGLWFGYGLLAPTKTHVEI

Oryctolagus cuniculus = organism: Oryctolagus cuniculus; assay: Ability to antagonise the contractile effects of the selective NK2 receptor agonist [B-ala8]NKA in the rabbit pulmonary artery (RPA); assay type: functional; details: read-out: pA2 (converted)
[2] = biological target: T2, Substance-K receptor (Rattus norvegicus) (UniProt P16610); assay: Binding affinity towards […] using [125I]- NKA radioligand expressed in rat duodenum at 100 nM
T2 sequence (whole entry): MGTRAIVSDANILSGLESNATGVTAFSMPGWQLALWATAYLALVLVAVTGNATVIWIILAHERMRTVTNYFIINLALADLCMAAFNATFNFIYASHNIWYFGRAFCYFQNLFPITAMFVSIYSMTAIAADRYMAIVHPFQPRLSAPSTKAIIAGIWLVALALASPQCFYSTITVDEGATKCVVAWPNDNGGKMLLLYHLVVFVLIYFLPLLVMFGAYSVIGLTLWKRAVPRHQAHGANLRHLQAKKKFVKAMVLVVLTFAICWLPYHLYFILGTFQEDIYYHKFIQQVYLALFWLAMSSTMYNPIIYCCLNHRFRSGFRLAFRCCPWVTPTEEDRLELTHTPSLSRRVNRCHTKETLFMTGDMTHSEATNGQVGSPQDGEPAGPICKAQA

Substance-K receptor [3] = biological target: T1, Substance-K receptor; assay: Binding affinity towards human Tachykinin receptor 2 using [125I]- NKA radioligand expressed in CHO cells; assay type: cell-based

Row | SMILES | pIC50 (Substance-K receptor [1]) | Kb (Oryctolagus cuniculus) [nM] | inhibition [2] [%] | pIC50 (Substance-K receptor [3])
1 | O=C(CC1CC1)N1CCC(CCN2CC(N3CCOCC3)C2)(c2ccc(Cl)c(Cl)c2)C1 (stereo not given) | 6.3 | – | – | –
2 | CN(CC(CCN1CCC(n2c(O)nc3ccccc32)C1)c1ccc(Cl)c(Cl)c1)C(=O)c1ccccc1 (stereo not given) | 7.4 | – | – | –
3 | O=C(c1ccccc1)N1CC(CCN2CC(N3CCOCC3)C2)(c2ccc(Cl)c(Cl)c2)C1 | 7.2 | 7.94 | – | –
4 | CN(CC(CCN1CCC(O)(c2ncc[nH]2)CC1)c1ccc(Cl)c(Cl)c1)C(=O)c1ccccc1 (stereo not given) | 6.6 | – | – | –
5 | CN(CC(CCN1CCC(O)CC1)c1ccc(Cl)c(Cl)c1)C(=O)c1ccccc1 (stereo not given) | 6.4 | – | – | –
6 | CN(CC(CCN1CCC(n2ccnc2)CC1)c1ccc(Cl)c(Cl)c1)C(=O)c1ccccc1 (stereo not given) | 7.7 | 5.01 | – | –
7 | CN(CC(CCN1CCCC(n2c(=O)[nH]c3ccccc32)C1)c1ccc(Cl)c(Cl)c1)C(=O)c1ccccc1 (stereo not given) | 7.1 | – | – | –
8 | CN(CC(CCN1CCCCC1)c1ccc(Cl)c(Cl)c1)C(=O)c1ccccc1 (stereo not given) | 6.3 | – | – | –
9 | O=S(=O)(c1ccccc1)N1CCC(CCN2CC(N3CCOCC3)C2)(c2ccc(Cl)c(Cl)c2)C1 (stereo not given) | 6.7 | 63.1 | – | –
10 | CN(CC(CCN1CCC(O)(c2ccccc2)CC1)c1ccc(Cl)c(Cl)c1)C(=O)c1ccccc1 (stereo not given) | 8.9 | 0.316 | – | –
11 | CCN(CC)C(=O)C1CCCN(CCC(CN(C)C(=O)c2ccccc2)c2ccc(Cl)c(Cl)c2)C1 (stereo not given) | – | – | 61 | –
12 | CN(CC(CCN1CCC(n2c(O)nc3ccccc32)CC1)c1ccc(Cl)c(Cl)c1)C(=O)c1ccccc1 (stereo not given) | 8.9 | 3.98 | 81 | –
13 | CC(=O)NC1(c2ccccc2)CCN(CCC(CN(C)C(=O)c2ccccc2)c2ccc(Cl)c(Cl)c2)CC1 (stereo not given) | – | 0.794 | – | 8.9
14 | COc1ccccc1C(=O)N1CCCC(CCN2CC(N3CCOCC3)C2)(c2ccc(Cl)c(Cl)c2)C1 (stereo not given) | – | 20 | – | –
15 | CN(CC(CCN1CC(n2ccnc2)C1)c1ccc(Cl)c(Cl)c1)C(=O)c1ccccc1 (stereo not given) | 6.8 | 25.1 | – | –
16 | CN(CC(CCN1CCCC(n2c(O)nc3ccccc32)CC1)c1ccc(Cl)c(Cl)c1)C(=O)c1ccccc1 (stereo not given) | 8.4 | 3.98 | – | –
17 | CN(CC(CCN1CCC(n2cncn2)CC1)c1ccc(Cl)c(Cl)c1)C(=O)c1ccccc1 (stereo not given) | 6.8 | 79.4 | – | –
18 | CN(CC(CCN1CC(N2CCOCC2)C1)c1ccc(Cl)c(Cl)c1)C(=O)c1ccccc1 (stereo not given) | 7.7 | 1.26 | – | –
19 | CN(CC(CCN1CCC(c2ccccc2)CC1)c1ccc(Cl)c(Cl)c1)C(=O)c1ccccc1 (stereo not given) | < 7 | – | – | –
20 | CN(CC(CCN1CCC(n2cnc3ccccc32)CC1)c1ccc(Cl)c(Cl)c1)C(=O)c1ccccc1 (stereo not given) | 8.1 | 2.51 | – | –
21 | O=C(c1ccccc1)N1CCC(CCN2CC(N3CCOCC3)C2)(c2ccc(Cl)c(Cl)c2)C1 (stereo not given) | 7.5 | – | – | –
22 | CN(CC(CCN1CCC(c2nc3ccccc3[nH]2)CC1)c1ccc(Cl)c(Cl)c1)C(=O)c1ccccc1 (stereo not given) | 7.3 | 50.1 | – | –
